Source: patent US20250361268A1, “NOVEL ANTI-INFLAMMATORY PEPTIDE AND USE THEREOF” (NOVACELL TECHNOLOGY INC., priority 2022, published 2025)
Peptide text beside a SMILES is read from it.

How the values were obtained:
FPR2 = biological target: T1, FPR2 (Homo sapiens, UniProt P25090); test: Change in calcium activity by peptide (Fura-2) in RBL cells overexpressing FPR2; type: cell-based; conditions: calcium activity (Fura-2), graded per Table 3, read-out: EC50 for [Ca^2+] FPR2
T1 construct: expressed in transfected cells; host or cells: RBL cells (RBL-FPR2)
T1 sequence (P25090 1-351): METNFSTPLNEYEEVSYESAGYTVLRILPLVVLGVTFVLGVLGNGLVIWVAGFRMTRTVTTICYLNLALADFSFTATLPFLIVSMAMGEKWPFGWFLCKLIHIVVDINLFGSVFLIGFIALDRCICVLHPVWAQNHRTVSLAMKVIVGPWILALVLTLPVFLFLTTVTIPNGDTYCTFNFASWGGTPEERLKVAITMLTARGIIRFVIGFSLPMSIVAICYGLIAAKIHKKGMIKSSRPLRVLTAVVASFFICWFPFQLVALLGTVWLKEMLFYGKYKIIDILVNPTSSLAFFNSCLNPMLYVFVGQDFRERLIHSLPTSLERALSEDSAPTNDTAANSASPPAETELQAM
Experimental: The present inventors observed changes in calcium ion permeability to confirm whether the immunomodulatory peptide candidates prepared according to one example of the present invention activate the immune function of a living organism. Specifically, the concentration of calcium ions in cells was measured to confirm whether the peptides activate FPR2.
A peptide dissolved in water or 50% DMSO at a concentration of 0.5 mM was prepared by diluting it to an appropriate concentration in HBSS (Sigma, #55037C)+20 mM HEPES buffer.
In this experiment, the cells were cultured in DMEM (Lonza, #BE12-604F) containing 10% fetal bovine serum (FBS) and 1% penicillin-streptomycin under conditions of 37° C. and 5% CO2.
(§1) The day before measuring calcium activity, the cells were prepared at 3×10^5 cells per well in a 96-well flat clear bottom black plate (Costar, #3603). The prepared cells were treated with a Fura-2 QBT calcium kit (component A; Molecular Devices, #8197) at the same volume per well. After incubation at 37° C. for 1 hour, the cells were incubated in a dark room at room temperature for 30 minutes. After the Fura-2-treated cells, the prepared peptide, and a dedicated tip were placed at each section of FlexStation 3 Multi-Mode Microplate Reader (Molecular Devices, #Flex3), changes in calcium activity caused by the peptides were measured using SoftMax Pro 7 Software (Molecular Devices, #FLEX3-INSTALL-OS).

FPR1 = biological target: T2, FPR1 (Homo sapiens, UniProt P21462); test: Change in calcium activity by peptide, FPR1 activation effect; type: cell-based; conditions: calcium activity (Fura-2), graded per Table 3, read-out: EC50 for [Ca^2+] FPR1
T2 sequence (P21462 1-350): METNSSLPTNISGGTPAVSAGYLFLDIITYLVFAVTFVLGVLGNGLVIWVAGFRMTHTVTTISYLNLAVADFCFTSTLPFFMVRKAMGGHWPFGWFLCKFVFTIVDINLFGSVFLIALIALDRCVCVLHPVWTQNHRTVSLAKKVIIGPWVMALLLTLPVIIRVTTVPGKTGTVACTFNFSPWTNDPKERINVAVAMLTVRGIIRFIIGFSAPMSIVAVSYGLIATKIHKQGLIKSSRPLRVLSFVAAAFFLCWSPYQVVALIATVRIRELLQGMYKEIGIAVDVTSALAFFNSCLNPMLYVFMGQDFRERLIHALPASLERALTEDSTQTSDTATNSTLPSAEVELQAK
Experimental: as §1, with “#FLEX3-INSTALL-OS). […]” for “#FLEX3-INSTALL-OS).”

SMILES	EC50 (FPR2) [µM]	EC50 (FPR1) [µM]
CCCC(=O)N[C@@H](CCCNC(=N)N)C(=O)N[C@@H](Cc1c[nH]c2ccccc12)C(=O)N[C@@H](CCCNC(=N)N)C(=O)N[C@@H](Cc1ccc(O)cc1)C(=O)N[C@@H](CCCCN)C(=O)N1CCC[C@H]1C(=O)N[C@H](CCSC)C(N)=O [Peptide 75] (HELM PEPTIDE1{[CCCC(=O)[*:2]].R.W.R.Y.K.P.[dM].[am]}$$$$V2.0)	< 0.01	1 to 10
CCCC(=O)N[C@@H](CCCCN)C(=O)N[C@@H](CCSC)C(=O)N[C@@H](CCCCN)C(=O)N[C@@H](Cc1ccc(O)cc1)C(=O)N[C@@H](CCCCN)C(=O)N1CCC[C@H]1C(=O)N[C@H](CCSC)C(N)=O [Peptide 68] (HELM PEPTIDE1{[CCCC(=O)[*:2]].K.M.K.Y.K.P.[dM].[am]}$$$$V2.0)	< 0.01	> 10
CSCC[C@H](NC(=O)[C@@H](N)CCCNC(=N)N)C(=O)N[C@@H](CCCNC(=N)N)C(=O)N[C@@H](Cc1ccc(O)cc1)C(=O)N[C@@H](Cc1ccc(O)cc1)C(=O)N[C@H](C(=O)N[C@H](CCSC)C(N)=O)C(C)C [Peptide 97] (HELM PEPTIDE1{R.M.R.Y.Y.V.[dM].[am]}$$$$V2.0)	< 0.01	1 to 10
CCCCCCCC(=O)N[C@@H](CCCNC(=N)N)C(=O)N[C@@H](Cc1c[nH]c2ccccc12)C(=O)N[C@@H](CCCNC(=N)N)C(=O)N[C@@H](Cc1ccc(O)cc1)C(=O)N[C@@H](CCCCN)C(=O)N[C@H](C(=O)N[C@H](CCSC)C(N)=O)C(C)C [Peptide 2] (HELM PEPTIDE1{[CCCCCCCC(=O)[*:2]].R.W.R.Y.K.V.[dM].[am]}$$$$V2.0)	0.011 to 0.1	1 to 10
CC[C@H](C)[C@H](NC(C)=O)C(=O)N[C@@H](CCCCN)C(=O)N[C@@H](Cc1ccc(O)cc1)C(=O)N[C@@H](CCCCN)C(=O)N1CCC[C@H]1C(=O)N[C@H](CCSC)C(N)=O [Peptide 143] (HELM PEPTIDE1{[ac].I.K.Y.K.P.[dM].[am]}$$$$V2.0)	< 0.01	> 10
CCCCCCCC(=O)N[C@@H](CCCNC(=N)N)C(=O)N[C@@H](CCSC)C(=O)N[C@@H](CCCNC(=N)N)C(=O)N[C@@H](Cc1ccc(O)cc1)C(=O)N[C@@H](Cc1c[nH]c2ccccc12)C(=O)N1CCC[C@H]1C(=O)N[C@H](CCSC)C(N)=O [Peptide 109] (HELM PEPTIDE1{[CCCCCCCC(=O)[*:2]].R.M.R.Y.W.P.[dM].[am]}$$$$V2.0)	< 0.01	1 to 10
CCCC(=O)N[C@H](C(=O)N[C@@H](CCCCN)C(=O)N[C@@H](Cc1ccc(O)cc1)C(=O)N[C@@H](CCCCN)C(=O)N1CCC[C@H]1C(=O)N[C@H](CCSC)C(N)=O)[C@@H](C)CC [Peptide 144] (HELM PEPTIDE1{[CCCC(=O)[*:2]].I.K.Y.K.P.[dM].[am]}$$$$V2.0)	< 0.01	> 10
CCCC(=O)N1CCC[C@H]1C(=O)N[C@@H](CCSC)C(=O)N[C@@H](CCCNC(=N)N)C(=O)N[C@@H](Cc1ccc(O)cc1)C(=O)N[C@@H](CCCCN)C(=O)N[C@@H](Cc1ccc(O)cc1)C(=O)N[C@H](CCSC)C(N)=O [Peptide 47] (HELM PEPTIDE1{[CCCC(=O)[*:2]].P.M.R.Y.K.Y.[dM].[am]}$$$$V2.0)	< 0.01	> 10
CSCC[C@@H](NC(=O)[C@@H](NC(=O)[C@H](CC(N)=O)NC(=O)[C@H](Cc1ccc(O)cc1)NC(=O)[C@H](CCCNC(=N)N)NC(=O)[C@H](Cc1c[nH]c2ccccc12)NC(=O)[C@@H](N)CCCNC(=N)N)C(C)C)C(N)=O [Peptide 159] (HELM PEPTIDE1{R.W.R.Y.N.V.[dM].[am]}$$$$V2.0)	0.011 to 0.1	1 to 10
CSCC[C@@H](NC(=O)[C@H](Cc1ccc(O)cc1)NC(=O)[C@H](CCCCN)NC(=O)[C@H](Cc1ccc(O)cc1)NC(=O)[C@H](CCCNC(=N)N)NC(=O)[C@H](Cc1c[nH]c2ccccc12)NC(=O)[C@H](CCCNC(=N)N)NC(C)=O)C(N)=O [Peptide 33] (HELM PEPTIDE1{[ac].R.W.R.Y.K.Y.[dM].[am]}$$$$V2.0)	< 0.01	> 10
CCCC(=O)N[C@@H](CCSC)C(=O)N[C@@H](CCCNC(=N)N)C(=O)N[C@@H](Cc1ccc(O)cc1)C(=O)N[C@@H](CCCCN)C(=O)N1CCC[C@H]1C(=O)N[C@H](CCSC)C(N)=O [Peptide 56] (HELM PEPTIDE1{[CCCC(=O)[*:2]].M.R.Y.K.P.[dM].[am]}$$$$V2.0)	< 0.01	> 10
CCCCCCCC(=O)N[C@H](C(=O)N[C@@H](CCCCN)C(=O)N[C@@H](Cc1ccc(O)cc1)C(=O)N[C@@H](CCCCN)C(=O)N[C@H](C(=O)N[C@H](CCSC)C(N)=O)C(C)C)[C@@H](C)CC [Peptide 137] (HELM PEPTIDE1{[CCCCCCCC(=O)[*:2]].I.K.Y.K.V.[dM].[am]}$$$$V2.0)	< 0.01	1 to 10
CCCC(=O)N[C@@H](CCCNC(=N)N)C(=O)N[C@@H](CCSC)C(=O)N[C@@H](CCCNC(=N)N)C(=O)N[C@@H](Cc1ccc(O)cc1)C(=O)N[C@@H](CCCCN)C(=O)N1CCC[C@H]1C(=O)N[C@H](CCSC)C(N)=O [Peptide 52] (HELM PEPTIDE1{[CCCC(=O)[*:2]].R.M.R.Y.K.P.[dM].[am]}$$$$V2.0)	< 0.01	> 10
CC[C@H](C)[C@H](N)C(=O)N[C@@H](CCCCN)C(=O)N[C@@H](Cc1ccc(O)cc1)C(=O)N[C@@H](CCCCN)C(=O)N1CCC[C@H]1C(=O)N[C@H](CCSC)C(N)=O [Peptide 142] (HELM PEPTIDE1{I.K.Y.K.P.[dM].[am]}$$$$V2.0)	< 0.01	> 10
CSCC[C@@H](NC(=O)[C@H](Cc1ccc(O)cc1)NC(=O)[C@H](Cc1c[nH]c2ccccc12)NC(=O)[C@H](Cc1ccc(O)cc1)NC(=O)[C@H](CCCNC(=N)N)NC(=O)[C@H](Cc1c[nH]c2ccccc12)NC(=O)[C@@H](N)CCCNC(=N)N)C(N)=O [Peptide 77] (HELM PEPTIDE1{R.W.R.Y.W.Y.[dM].[am]}$$$$V2.0)	0.011 to 0.1	> 10
CCCC(=O)N[C@@H](CCSC)C(=O)N[C@@H](CCCNC(=N)N)C(=O)N[C@@H](Cc1ccc(O)cc1)C(=O)N[C@@H](Cc1c[nH]c2ccccc12)C(=O)N1CCC[C@H]1C(=O)N[C@H](CCSC)C(N)=O [Peptide 112] (HELM PEPTIDE1{[CCCC(=O)[*:2]].M.R.Y.W.P.[dM].[am]}$$$$V2.0)	< 0.01	1 to 10
CSCC[C@H](N)C(=O)N[C@@H](CCCNC(=N)N)C(=O)N[C@@H](Cc1ccc(O)cc1)C(=O)N[C@@H](CCCCN)C(=O)N1CCC[C@H]1C(=O)N[C@H](CCSC)C(N)=O [Peptide 54] (HELM PEPTIDE1{M.R.Y.K.P.[dM].[am]}$$$$V2.0)	< 0.01	> 10
CSCC[C@H](NC(=O)[C@H](CCCCN)NC(C)=O)C(=O)N[C@@H](CCCCN)C(=O)N[C@@H](Cc1ccc(O)cc1)C(=O)N[C@@H](CCCCN)C(=O)N1CCC[C@H]1C(=O)N[C@H](CCSC)C(N)=O [Peptide 67] (HELM PEPTIDE1{[ac].K.M.K.Y.K.P.[dM].[am]}$$$$V2.0)	< 0.01	> 10
CCCCCCCC(=O)N[C@@H](CCCNC(=N)N)C(=O)N[C@@H](CCSC)C(=O)N[C@@H](CCCNC(=N)N)C(=O)N[C@@H](Cc1ccc(O)cc1)C(=O)N[C@@H](Cc1ccc(O)cc1)C(=O)N[C@H](C(=O)N[C@H](CCSC)C(N)=O)C(C)C [Peptide 99] (HELM PEPTIDE1{[CCCCCCCC(=O)[*:2]].R.M.R.Y.Y.V.[dM].[am]}$$$$V2.0)	0.011 to 0.1	1 to 10
